Structures can show the parent of a compound that is named as a salt. Marks after values point to notes of the source that are not given here.
Tests used:
[1] = Passive membrane permeation assay (PAMPA); assay type: in vitro ADME; conditions: pre-coated PAMPA plate, PBS pH 7.4, 200 µM, 25 °C; for R (mass retention) / Pe: 5 h; for Papp at 5 h, 200 µM / Pe: mean ± standard deviation; for Papp at 5 h, 200 µM: read-out: Pe
Method: The passive membrane permeability was evaluated with a pre-coated PAMPA plate system (BD Gentest, BD Bioscience, Germany) following the guidelines of the manufacturer and a previous literature report (cf. Kühl et al. Eur. J. Med. Chem. 2022, 240, 114585). Phosphate-buffered saline (PBS) pH 7.4 (Sigma-Aldrich, Germany) was used for all experiments. Analyte concentrations were determined on a Jasco HPLC system equipped with a UV detector and an RP-18 column (Chromolith® Performance RP-18e, 100x4.6 mm) using one of the gradients listed in Table 2. For all samples, the injection volume was 40 µl. Table 2: HPLC settings for the analysis of PAMPA samples.
Prior to performing the assay, the PAMPA plate was warmed to room temperature for 0.5 h. In the donor plate, 300 µL of the 200 µM compound solutions in PBS (4 % dimethyl sulfoxide (DMSO)) were dispensed in triplicate, and in the acceptor plate, 200 µL of PBS buffer were added to all wells. The plates were combined, and the system was incubated at 25 °C for 5 h. Upon completion of the incubation, donor and acceptor plate were separated. The wells were homogeneously mixed with a pipette, and a 100 µl sample of each donor and acceptor well was transferred to 96 well U-bottom polypropylene plates (Greiner Bio-One, Germany) for quantitative HPLC analysis.

[2] = Prodrug stability in human whole saliva; assay type: in vitro ADME; conditions: mean of fresh samples of three individuals, classified into three groups; for half-life at 50 µM: 37 °C
Method: Freshly collected saliva and 5 mM stock solutions of the analytes in DMSO were prewarmed to 37 °C for 10 min. Then, 700 µl prewarmed saliva was added to 7 µl of the prodrug stock, and the mixture was incubated at 37 °C. Samples (100 µL) were taken at selected time points (0, 10, 20, 40, 60 min; 2 h or 24 h) and immediately quenched with acetonitrile (200 µl). Blank samples were prepared by mixing saliva (100 µl) with acetonitrile (200 µl). Centrifugation (3,000 rpm, 5 min) of the quenched samples afforded clear supernatants which were transferred to 96 well U-bottom polypropylene plates (Greiner Bio-One, Germany). Analyte quantifications were performed on a Jasco HPLC system equipped with a UV detector and an RP-18 column (Chromolith® Performance RP-18e, 100x4.6 mm) using the gradients listed in Table 4. Samples that gave rise to asymmetric peaks inadequate for quantification were diluted (1:1) with H2O (+0.1 % TFA). The injection volume was 40 µl and the flow was set to 1.0 mL/min. UV detection was performed at 286 nm. […] Table 4: HPLC settings for quantitative analysis of saliva samples.

[3] = Drug release kinetics (prodrug cleavage) in human blood plasma; assay type: in vitro ADME; conditions: for half-life: 10 % human plasma in PBS, 50 µM; for half-life / half-life at 50 µM: 37 °C; for half-life at 50 µM: 100 % pooled human blood plasma; for half-life at 50 µM / t1/2 at 37 °C and [prodrug]0 = 50 µM, 100 % Human Plasma: 100 % human plasma
Method: Pooled human blood plasma (Biowest, France) and sterile Dulbecco's phosphate buffered saline (PBS) pH 7.3 (Sigma-Aldrich, Germany) were used for all experiments. The blood plasma was aliquoted upon receipt and stored at -20 °C. 10 % solutions were prepared by thawing a plasma aliquot at 2-8 °C, distributing it into plastic vials and diluting with the appropriate volume of sterile PBS. The 10 % and 100 % plasma aliquots were stored at -20 °C and thawed at 2-8 °C directly before the assay was performed. In a thermoblock, a plasma aliquot and 10 µl of a 5 mM prodrug solution in DMSO were prewarmed to 37 °C for 10 min in separate plastic vials. Then, 1000 µl of the prewarmed plasma sample was added to the prodrug solution, and 9×100 µl samples were withdrawn at appropriate time intervals. The enzymatic reaction was quenched by immediate mixing of the samples (100 µl) with acetonitrile (200 µl). Blank samples were prepared by mixing 10 % or 100 % plasma (100 µl) with acetonitrile (200 µl), respectively. Samples of the initial reaction mixture were prepared by adding the 5 mM prodrug solution (1 µl) to a blank sample.
Centrifugation (13,000 rpm, 3 min) of the quenched samples afforded clear supernatants which were transferred to 96 well U-bottom polypropylene plates (Greiner Bio-One, Germany). Analyte quantifications were performed on a Jasco HPLC system equipped with a UV detector and an RP-18 column (Chromolith® Performance RP-18e, 100x4.6 mm) using one of the gradients listed in Table 3. Prodrug degradation was monitored using undiluted supernatant and a 10 min chromatographic method. […] For all samples, the injection volume was 40 µL and the flow was set to 1.0 mL/min. […] Table 3: HPLC settings for quantitative analysis of plasma samples.

[4] = test system: HuH-7 cells; assay: Cell viability in HuH-7 cells (CellTiter-Blue); assay type: cell-based, human; conditions: for Cell Viability in HuH7 at 50 µM, 2 h Incubation / Cell Viability in HuH7 at 50 µM, 24 h Incubation: mean of triplicates ± standard deviation; for toxicity for HuH-7 cells: result in words
Method: In order to assess cytotoxic effects of compounds in cell culture, HuH-7 cells were incubated in presence of these compounds in a 96-well plate for 2 h or 24 h. In order to generate a calibration curve for cell viability, a serial dilution (1:2 dilution series) of cells was seeded into control wells. Measurement of cell viability is based on the assay development using CellTiter-Blue reagent (Resazurin, blue color), which is reduced to resofurin (pink color) by viable cells.
Prior to performing the assay, a 96-well assay plate (F-bottom, transparent, Greiner) containing HuH-7 cells (20,000 cells per well) in culture medium was prepared. […] CellTiter-Blue reagent (1-2 mL) was diluted with cell culture medium (10 mL) in a Falcon tube and prewarmed to 37 °C. The 96-well plate was removed from the incubator, the medium aspirated using a vacuum pump and 100 µL of diluted CellTiter-Blue reagent was added to each well.

SMILES | R (mass retention) [1] | Papp at 5 h, 200 µM [1] [×10⁻⁶ cm/s] | Cell Viability in HuH7 at 50 µM, 2 h Incubation [4] [%] | Cell Viability in HuH7 at 50 µM, 24 h Incubation [4] [%] | further results
Cn1c(=O)c2c(ncn2C)n(C)c1=O [Caffeine, reference compound] | 1% | 12.8 ± 0.9 | – | – | –
CCCCCC(=O)Oc1cccc2[nH]cc(CCN(C)CC)c12 [Compound 8c, 4-Hexanoyloxy-N-ethyl-N-methyltryptammonium fumarate, reference compound] | 7% | 11.8 ± 1 | 30.2 ± 1.0 | 74.3 ± 8.0 | half-life at 50 µM [2]: < 15 min; half-life [3]: 0.66 ± 0.13 min
CCN(C)CCc1c[nH]c2cccc(OC(C)=O)c12 [Compound 8a, 4-Acetoxy-N-ethyl-N-methyltryptammonium fumarate, reference compound] | 4% | 5.6 ± 0.8 | 88.7 ± 3.0 | 85.4 ± 3.6 | half-life at 50 µM [2]: 15 to 60 min; half-life [3]: 0.69 ± 0.14 min
CN(C)CCc1c[nH]c2cccc(O)c12 [Psilocin 1, 4-Hydroxy-N,N-dimethyltryptamine, reference compound] | – | – | 93.7 ± 6.3 | 72.5 ± 8.3 | –
CN(C)CCc1cn(C(=O)OCc2ccccc2)c2cccc(O)c12 [Compound 10, 1-Benzyloxycarbonyl-4-hydroxy-N,N-dimethyltryptamine] | – | – | 0.1 ± 0.2 | -1.3 ± 0.1 | half-life at 50 µM [3]: > 95 h; toxicity for HuH-7 cells [4]: extremely toxic
CC(=O)Oc1ccccc1C(=O)O [Acetylsalicylic acid, reference compound] | – | – | 92.9 ± 3.3 | 83.8 ± 3.8 | half-life at 50 µM ([2]; both sexes): > 60 min
CCN(C)CCc1c[nH]c2cccc(OC(=O)c3ccccc3)c12 [Compound 8i, 4-Benzoyloxy-N-ethyl-N-methyltryptammonium fumarate] | 6% | 9.4 ± 0.8 | 95.0 ± 3.8 | 80.1 ± 1.7 | half-life at 50 µM [2]: 15 to 60 min; half-life [3]: 1.5 ± 0.5 min
O=C1NC(=O)C(c2ccccc2)(c2ccccc2)N1 [Phenytoin, reference compound] | 57% | 7.5 ± 1 | 122.9 ± 1.7 | 84.2 ± 2.7 | –
NS(=O)(=O)c1cc(C(=O)O)c(NCc2ccco2)cc1Cl [Furosemide, reference compound] | – | – | 121.9 ± 13.8 | 90.7 ± 1.1 | Pe [1]: -0.4 ± 0.3^c 10^-6 cm/s
CCN(C)CCc1c[nH]c2cccc(OC(=O)CC(C)(C)C)c12 [Compound 8h, 4-(tert-Butylacetyl)oxy-N-ethyl-N-methyltryptammonium fumarate] | 1% | 11.2 ± 0.8 | 28.7 ± 1.1 | 42.3 ± 25.9 | half-life [3]: > 8 min
CCN(C)CCc1c[nH]c2cccc(OC(=O)C3CC3)c12.CCN(C)CCc1c[nH]c2cccc(OC(=O)C3CC3)c12.O=C(O)/C=C/C(=O)O [Compound 8e, 4-(Cyclopropanecarbonyloxy)-N-ethyl-N-methyltryptammonium fumarate] | – | – | 101.2 ± 3.1 | 81.7 ± 2.0 | t1/2 at 37 °C and [prodrug]0 = 50 µM, Human Saliva [2]: > 60 min; t1/2 at 37 °C and [prodrug]0 = 50 µM, 100 % Human Plasma [3]: 0.84 ± 0.11^c min
CCN(C)CCc1c[nH]c2cccc(OC(=O)c3ccco3)c12.CCN(C)CCc1c[nH]c2cccc(OC(=O)c3ccco3)c12.O=C(O)/C=C/C(=O)O [Compound 8j, 4-(2-Furoyl)oxy-N-ethyl-N-methyltryptammonium fumarate] | – | – | 89.6 ± 3.4 | 78.0 ± 2.0 | t1/2 at 37 °C and [prodrug]0 = 50 µM, Human Saliva [2]: 15 to 60 min; t1/2 at 37 °C and [prodrug]0 = 50 µM, 100 % Human Plasma [3]: 0.14 ± 0.01 min
CCCC(=O)OCOc1cccc2[nH]cc(CCN(C)C)c12 [Compound 15b, 4-n-Butanoyloxymethyloxy-N,N-dimethyltryptammonium fumarate] | 7^b % | – | 90.0 ± 5.2 | 79.3 ± 3.5 | half-life at 50 µM [2]: < 15 min; Pe [1]: 8.1 ± 0.8^b 10^-6 cm/s
CCN(C)CCc1c[nH]c2cccc(O)c12 [4-OH-MET fumarate 17, 4-Hydroxy-N-ethyl-N-methyltryptammonium fumarate, reference compound] | 29% | 11 ± 1 | 91.0 ± 1.7 | 82.9 ± 1.3 | –
CCN(C)CCc1cn(C(=O)OCc2ccccc2)c2cccc(O)c12 [Compound 11, 1-Benzyloxycarbonyl-4-hydroxy-N-ethyl-N-methyltryptamine] | – | – | 0.1 ± 0.2 | -2.1 ± 0.1 | half-life at 50 µM [3]: > 95 h; toxicity for HuH-7 cells [4]: extremely toxic
CCN(C)CCc1c[nH]c2cccc(OC(=O)CC(C)C)c12 [Compound 8g, 4-(3-Methylbutanoyl)oxy-N-ethyl-N-methyltryptammonium fumarate] | 2% | 10.6 ± 0.8 | 81.7 ± 8.6 | 79.8 ± 4.6 | half-life [3]: > 8 min
CN(C)CCCN1c2ccccc2CCc2ccccc21 [Imipramine HCl, reference compound] | – | – | 91.1 ± 3.7 | 24.4 ± 5.3 | –
CCCC(=O)OCOc1cccc2[nH]cc(CCN(C)CC)c12 [Compound 15d, 4-n-Butanoyloxymethyloxy-N-ethyl-N-methyltryptammonium fumarate] | 6% | – | 85.4 ± 2.7 | 80.6 ± 3.3 | half-life at 50 µM [2]: < 15 min; Pe [1]: 8.0 ± 0.3 10^-6 cm/s

— patent publication EP4592276A1, “NOVEL ACY[…] OF PSILOCIN AND RELATED 4-HYDROXYT[…] BY AN EFFICIENT […] APPROACH” (Universität Heidelberg, priority 2024, dated 2025)
